Ends that are not written are not given here.

Consider one substance from patent EP1351977B1, “ANTIMICROBIAL PSEUDOPEPTIDES” (INSTITUT NATIONAL DE LA RECHERCHE AGRONOMIQUE (INRA), priority 2001, dated 2004).

Holding throughout (format): cell-based
In test [1] the test system is Stenotrophomonas maltophilia. The test is described as follows: Bacterial growth inhibition test in microplates (liquid medium), MIC, nosocomial bacteria. The following applies: microplate test, TSB, 24h; nosocomial strain. The procedure:
(§1) Deux tests ont été utilisés pour mesurer l'activité antibactérienne des pseudopeptides, un test d'inhibition de la croissance bactérienne en microplaques (de 96 puits) en milieu liquide et un test d'inhibition de la croissance bactérienne en boîte de Pétri en milieu solide. • * Test en microplaques: La culture bactérienne à tester est prélevée en phase exponentielle, puis diluée au 1/500^ème dans du milieu liquide TSB frais. Chaque puits de la microplaque est rempli avec 100 µl de suspension bactérienne diluée. Dans le premier puits, 100 µl de l'échantillon de pseudopeptide à tester est ajouté à la suspension bactérienne, puis l'échantillon est dilué de 2 en 2 en transférant d'un puits à l'autre 100 µl de suspension. La lecture de la microplaque se fait en mesurant la densité optique à […] (DO600nm) après 24h d'incubation à 28°C ou 37°C selon les bactéries cibles. Connaissant la concentration en pseudopeptide de l'échantillon de départ, ce test permet de déterminer la valeur de la CMI (Concentration Minimale d'Inhibition de la croissance bactérienne). Dans ce test, la CMI correspond à la concentration de l'échantillon pour lequel la DO600nm est inférieure à celle du témoin de culture. • * Test en boîte de Pétri: La culture bactérienne à tester est prélevée en phase exponentielle, puis incorporée à 10 ml d'une gélose dite "sous-couche" (Agarose 1% poids/vol; NaCl 100 mM; Trypcase 0.03 % poids/vol; Tampon phosphate 10 mM pH7.4) à raison de 2.10^5 bactéries/ml. Le mélange est coulé dans une boîte de Pétri ordinaire. 9 puits d'environ 10 µl de volume sont formés dans la "sous-couche" à l'aide d'un embout de pipette stérile de 10 ml. Ces puits sont remplis avec une série de dilutions des pseudopeptides à tester (concentration initiale 500 µg/ml, et dilution de deux en deux jusqu'à 1,95 µg/ml). Après diffusion à température ambiante pendant 2h, une gélose dite "sur-couche" (Agarose 1% wt/vol; Trypcase 6 % wt/vol; Tampon phosphate 10 mM pH7.4) est ajoutée sur la sous-couche à raison de 5 à 10 ml. Après solidification, l'ensemble est mis à incuber pendant une nuit. Le diamètre d'inhibition de la culture bactérienne autour de chaque puits est mesuré en mm; il existe une relation linéaire entre le diamètre d'inhibition et le log10 de la concentration en pseudopeptide qui permet de déterminer par extrapolation la valeur de la CMI.
(§2) Une seconde série de résultats a été obtenue en utilisant le test en microplaques vis-à-vis de bactéries nosocomiales issues de la collection du laboratoire de Bactériologie Médicale du Centre Hospitalier Universitaire de Nîmes (France). Dans cette série, seul le pseudopeptide contenu dans la fraction 8 a été testé (Tableau 5).

Test [2] relates to Staphylococcus aureus. Described as above. The following applies: microplate test, TSB, 24h; nosocomial strain. The procedure:
as §1, §2

Test [3] has as its system Enterococcus sp. The test is described as above. Conditions: microplate test, TSB, 24h; nosocomial strain. The protocol:
as §1, §2

Test [4] has as its system Enterobacter aerogenes. Described as above. Conditions: microplate test, TSB, 24h; nosocomial strain. The procedure: as §1, §2
Test [5] concerns Pseudomonas aeruginosa. Described as above. The following applies: microplate test, TSB, 24h; nosocomial strain. The procedure:
as §1, §2

Test [6] has as its system Cladosporium sp. The test is described as follows: Antifungal growth inhibition test in liquid medium.
Test [7] concerns Botrytis cinerea sp. The test is described as follows: Antifungal growth inhibition test in liquid medium.
Test [8] deals with Salmonella sp. The test is described as follows: Bacterial growth inhibition test in Petri dish (solid medium), MIC. Conditions: MIC extrapolated from inhibition diameter vs log10 concentration. The procedure:
as §1
Une première série de résultats a été obtenue en utilisant le test en boîte de Pétri vis-à-vis de bactéries non pathogènes issues de la collection de Travaux pratiques du laboratoire de Pathologie Comparée de l'Université de Montpellier (France). Dans cette série, les pseudopeptides des pics 5, 7, 8,10 et 11 ont été testés (Tableau 4).

With “Composé 8: pseudopeptide du pic n° 8 de Xenorhabdus nematophilus F1; Famille 1: Lys Lys Lys Lys Lys Gly; 1066 Da; structure en Figure 2 (KKKKKG; also: pseudopeptide modifications)”, the CMI in test [1] was 25 µg/mL; in test [2], 25 µg/mL; in test [3], 12,5 µg/ml; in test [4], 25 µg/mL; in test [5], 12,5 µg/ml; in test [8] it was 30 µg/mL. The “pourcentage d'inhibition de croissance” value in test [6] (10 ppm) is given as 94%; in test [6] (20 ppm) it was 94%; in test [6] (40 ppm) it was 94%; in test [7] (10 ppm) it was 52%; in test [7] (20 ppm), 95%; in test [7] (40 ppm), 94%.
